{"source": "patent US10561638B2", "about": "“Methods for treating dependence” (Biotie Therapies, Inc., priority 2007, dated 2020)", "key": {"[1]": {"test_system": "tissue noradrenaline and dopamine content", "assay": "Tissue catecholamines in SHRs after three oral doses 12 h apart", "format": "in vivo, spontaneously hypertensive rats", "conditions": "for increase in DA/NE ratio: 30 mg/kg; for dopamine vs vehicle / dopamine/norepinephrine ratio vs vehicle / norepinephrine vs vehicle: 30 mg/kg x3", "procedure": "Male SHRs (15-16 weeks old, Charles River, Wilmington, Mass., USA) were used in in vivo studies. On the day of the study, animals were weighed and randomly assigned to be dosed with either vehicle (control) or the appropriate dose of nepicastat (3, 10, 30 or 100 mg·kg^−1, po) or Compound B (30 mg·kg^−1, po) three consecutive times, twelve hours apart. At six hours after the third dose, the rats were anaesthetized with halothane, decapitated and tissues (cerebral cortex, mesenteric artery and left ventricle) were rapidly harvested, weighed, placed in iced perchloric acid (0.4 M), frozen in liquid nitrogen and stored at −70° C. until subsequent analysis. To quantify noradrenaline and dopamine concentrations, tissues were homogenized by brief sonication and centrifuged at 13,000 rpm for 30 minutes at 4° C. The supernatant, spiked with 3,4-dihydroxybenzylamine (internal standard), was assayed for noradrenaline and dopamine by HPLC using electrochemical detection.\nNepicastat was used in in vivo biochemical studies to study the effects in spontaneously hypertensive rats (SHRs) and normal beagle dogs. On the day of the study, the animals were weighed and randomly assigned to receive either placebo (vehicle) or the appropriate dose of nepicastat. Each rat was dosed orally three times, 12 h apart, beginning in the morning. At 6 h after the third dose, the rats were anesthetized with halothane, decapitated, and the tissues (cerebral cortex, mesenteric artery and left ventricle) were rapidly harvested, weighed, placed in iced 0.4 M perchloric acid, frozen in liquid nitrogen and stored at −70° C. until analysis. Tissue NE and DA concentrations were assayed by HPLC using electrochemical detection. Male beagle dogs (10-16 kg, Marshall Farms USA Inc, North Rose, N.Y.) were used in the study. On the day of the study, dogs were randomly assigned to receive either placebo (empty capsule) or the appropriate dose of nepicastat. Each dog was dosed twice a day for 4.5 days. 6 h after the first dose on day 5, the dogs were euthanized with pentobarbital and the tissues (cerebral cortex. renal artery, left ventricle) harvested, weighed, placed in iced 0.4 M perchloric acid, frozen in liquid nitrogen and stored at −70° C. until analysis. Tissue NE and DA concentrations were assayed by HPLC using electrochemical detection.\nFifteen to sixteen week old male spontaneously hypertensive rats (SHRs) (Charles River Labs) were allowed food and water ad libitum. Animals were weighed and randomly assigned to one of the following treatment groups: 1) distilled water vehicle (dH2O), or nepicastat at 3, 10, 30, and 100 mg/kg, 2) Compound B at 30 mg/kg in distilled water, or 3) PEG 400:dH2O vehicle or SKF-102698 at 30 mg/kg. Each rat was dosed orally (p.o., using a gavage needle) three times 12 hours apart, beginning in the morning. At six hours after the third dose rats were anesthetized with halothane, decapitated, and the cortex, mesenteric artery, and left ventricle were rapidly harvested, weighed, placed in iced 0.4 M perchioric acid, frozen in liquid nitrogen, and stored at −70° C. Tissue dopamine and norepinephrine concentrations were assayed by high performance liquid chromatography and electrochemical detection.\nFour series of statistical analyses were performed. The first series compared the rats treated with various doses of nepicastat, and Compound B at 30 mg/kg to the vehicle control animals. A nonparametric one-way analysis of variance (ANOVA) with factor Dose and blocking factor Day was performed for each tissue and strain separately. […] Pairwise analysis between treated and controls at each dose were carried out using Dunnett's test to control the experiment-wise error rate. The second statistical test compared SKF-102698 to the PEG-dH2O vehicle treated group using a nonparametric t-test. The third statistical test compared Compound B to nepicastat at doses of 30 mg/kg using a nonparametric t-test."}, "[2]": {"test_system": "SHRs", "assay": "30-day radio-telemetry study in SHRs"}, "[3]": {"test_system": "short-term or working memory in rats", "assay": "Delayed-matching-to-position (DMTP) test", "format": "in vivo, Sprague Dawley rats", "procedure": "In the present DMTP study, rats were trained to remember the position of a lever across a scheduled delay of either 0, 8, 16 or 32 s in order to earn food reward. […] Another group of rats received only vehicle treatment throughout the experiment. […] The dependent measures in the present study included percentage of correct choices, the latency to make choice responses and the number of trials which the animals were able to complete during the 70 min test sessions. Changes in the former measure may indicate changes in memory and/or attentional function whereas changes in the latter two measures may be indicative of other non-cognitive effects of the drugs. Matching to position training began next. This and all subsequent training was conducted with the partitions fitted into the operant boxes. The sessions were initially 50 minutes long. Rats were placed in the operant box and the session began when the houselight was illuminated. Following a 30 s intertrial interval (ITI), one of the two levers (the sample lever) was inserted into the chamber. The lever remained inserted into the chamber until a lever-press response occurred. […] As soon as the magazine flap was pressed the magazine light was extinguished and both levers were inserted. […] The magazine light remained on until the flap was pressed. […] A 30 s ITI was initiated before the commencement of a new trial. The lever inserted as the sample lever was semi-randomly determined such that the right and lefthand levers were presented as the sample lever 8 times in a block of 16 trials. Following 24 sessions, the animals were performing the matching to position task with a high degree of accuracy. On Session 25 a variable delay interval was interposed between the depression of the sample lever and presentation of the levers on the choice trial. After a response to the sample lever, the choice levers were inserted following the first flap press occurring after either a 0 s (immediate), 4, 8 or 16 s delay. The order of the four types of trials (0, 4, 8 or 16 s delay) was semi-randomly determined with the constraint that in a 16 trial block, each delay occurred 4 times; twice on a left trial and twice on a right trial. […] The same trial was reinstated following the end of the ITI. From Session 25 onward the time-out period following incorrect choices was omitted and the session length was increased to 70 minutes. […] Due to poor performance at the 64 s delay, however, this delay was not used in any further sessions. On Session 59, delays of 0, 8, 16 and 32 s were used. These delays were used in all subsequent sessions. Only 51 of the 56 rats completed more than 24 trials (correction plus non-correction) during Session 59. These rats were selected and semi-randomly assigned to the following 7 groups such that the groups were matched on performance (percent correct, response latency and number of trials completed): […] Thus, the drug treatments administered to the seven groups during the 11 consecutive days of the present experiment were: The data collected and analyzed in the present DMTP study include 1) the percentage of correct responses; 2) the latency between performance of a response to the sample lever and the performance of the choice response and 3) the total number of correction and non-correction trials completed. The former two dependent measures were collected for the non-correction trials only. […] Two-way analysis of variance (ANOVA) with drug treatment as the between-subjects factor and delay (0, 8, 16 or 32 s) as the within-subjects factor was used to analyze percentage of correct choices and response latency. These analyses were conducted separately for each block of data. Significant interactions were followed by a one-way ANOVA which was conducted at each delay. A significant main effect from a one-way ANOVA was followed by a two-tailed Dunnett's t-test. One-way ANOVA followed by a post hoc Dunnett's test, when appropriate, was used to analyze the mean number of trials completed. […]"}, "[4]": {"test_system": "rats", "assay": "Chronic (10 day) dosing behavioral tests in rats", "procedure": "The effects of chronic dosing of nepicastat in rats were examined. Between three and thirteen days prior to the first dosing day the rats were placed inside the startle apparatus and after a five minute acclimation period they were presented with a 118 dB noise burst on average once a minute (a variable inter-trial interval ranging between 30 and 90 seconds will be used) for 20 minutes. The startle responses were measured and a mean for the last twenty startle response was calculated for each rat.\nThe following behavioral tests were administered during and after chronic dosing; body core temperature, motor activity, acoustic startle reactivity, and pre-pulse inhibition of acoustic startle.\nThe animals were tested in an enclosed room with a white noise generator running Motor activity tests were conducted immediately after the body core temperature reading taken on dosing day ten (about 3 hours and 35 minutes after the morning daily dose of nepicastat, and SKF-102698, and 20 minutes prior to the daily administration of clonidine and d-amphetamine on dosing day ten). Motor activity tests were run for one hour. A diagnostic program was run on each of the motor activity chambers prior to each test session to assure that the photo beams and light sensors were operating properly. […] D-amphetamine was used as the positive control for this assay.\nRat body core temperatures were obtained by inserting the rectal probe 2 cm into the colon of each rat. Each rat's body core temperature was measured three times and the average of the three reading was calculated. Body core temperature readings were obtained immediately prior to the ten day chronic dosing schedule (to obtain a baseline), and three and half hour after the morning daily dose of nepicastat, and SKF-102698, and 15 minutes prior to the daily administration of clonidine and d-amphetamine, on dosing days one, five and ten. […] Both clonidine (an alpha2 agonist), and d-amphetamine (a dopamine releaser) were used as the positive controls for this assay.\nAcoustic startle reactivity (a series of muscle contractions elicited by an intense burst of noise with a rapid onset), and pre-pulse inhibition (sensorimotor gating measured by analyzing any decrease in startle reactivity which occurs when a startling stimulus is immediately preceded by a non startling stimulus) were both measured in eight SR-Lab (San Diego Instruments, San Diego, Calif.) test stations. The rats were placed individually in a Plexiglas cylinder (10 cm diameter) which was housed in a ventilated sound-attenuating enclosure. Acoustic noise bursts (a broad band noise with a rise time and fall time of 1 msec) were presented via a speaker mounted 30 cm above the animal. Also, these speakers produced a 68 dB level of background noise throughout all test sessions. A piezoelectric accelerometer attached below the plexiglass cylinder transduced the subject's movement into a voltage which was then rectified and digitized (on a scale from 0 to 4095) by a PC computer equipped with SR-Lab software and interface assembly. A decibel meter was used to calibrate the speakers in each of the eight test station to ±1% of the mean. Additionally, a SR-Lab calibrating instrument was used to calibrate each of the eight startle detection apparatuses to ±2% of the mean. Startle reactivity and pre-pulse inhibition tests were run concurrently immediately alter the motor activity test (about 4 hours and 40 minutes after the morning daily injection of nepicastat, and SKF-102698, and 10 minutes after a supplemental administration of clonidine and d-amphetamine on dosing day ten)."}}, "note": "“Also recorded” adds a separate entry of the source.", "data": [{"smiles": "NCc1c[nH]c(=S)n1[C@@H]1CCc2c(F)cc(F)cc2C1", "note": "[Compound B, (R)-5-Aminomethyl-1-(5,7-difluoro-1,2,3,4-tetrahydronaphth-2-yl)-2,3-dihydro-2-thioxo-1H-imidazole]", "values": [{"measurement": "increase in DA/NE ratio", "setting": "[1]; cerebral cortex", "result": 1.1, "unit": "fold"}, {"measurement": "dopamine vs vehicle", "setting": "[1]; cerebral cortex", "result": "significant increase"}, {"measurement": "dopamine/norepinephrine ratio vs vehicle", "setting": "[1]; cerebral cortex", "result": "no effect"}, {"measurement": "norepinephrine vs vehicle", "setting": "[1]; cerebral cortex", "result": "significant increase"}, {"measurement": "increase in DA/NE ratio", "setting": "[1]; left ventricle", "result": 3.5, "unit": "fold"}, {"measurement": "dopamine vs vehicle", "setting": "[1]; left ventricle", "result": "significant increase"}, {"measurement": "dopamine/norepinephrine ratio vs vehicle", "setting": "[1]; left ventricle", "result": "significant increase"}, {"measurement": "norepinephrine vs vehicle", "setting": "[1]; left ventricle", "result": "did not significantly lower"}, {"measurement": "increase in DA/NE ratio", "setting": "[1]; mesenteric artery", "result": 2.6, "unit": "fold"}, {"measurement": "dopamine vs vehicle", "setting": "[1]; mesenteric artery", "result": "significant increase"}, {"measurement": "dopamine/norepinephrine ratio vs vehicle", "setting": "[1]; mesenteric artery", "result": "significant increase"}, {"measurement": "norepinephrine vs vehicle", "setting": "[1]; mesenteric artery", "result": "did not significantly lower"}]}, {"smiles": "CCOC(=O)[C@H](CCc1ccccc1)N[C@@H](C)C(=O)N1CCC[C@H]1C(=O)O", "note": "[enalapril, reference compound]", "values": [{"measurement": "body weights", "setting": "[2]; enalapril 1 mg/kg", "result": "slightly decreased body weight"}, {"measurement": "heart rate", "setting": "[2]; enalapril 1 mg/kg", "result": "did not affect HR"}, {"measurement": "left ventricular mass", "setting": "[2]; enalapril 1 mg/kg", "result": "did not regress the hypertrophy"}, {"measurement": "antihypertensive effect of mono-administration", "setting": "[2]; enalapril 1 mg/kg or nepicastat 30 mg/kg (Series III)", "result": "failed to lower blood pressure; also recorded: only a small antihypertensive effect; also recorded: did not induce significant antihypertensive effects"}, {"measurement": "antihypertensive effect throughout the study", "setting": "[2]; enalapril 10 mg/kg", "result": "−20 to −30", "unit": "mmHg"}, {"measurement": "body weights", "setting": "[2]; enalapril 10 mg/kg", "result": "significantly decreased (p<0.05) or had no effect"}, {"measurement": "heart rate", "setting": "[2]; enalapril 10 mg/kg", "result": "transient small tachycardia"}, {"measurement": "left ventricular mass", "setting": "[2]; enalapril 10 mg/kg", "result": "significantly reduced left ventricular mass in Series II, but not in Series I"}, {"measurement": "maximal decrease in MBP", "setting": "[2]; enalapril 10 mg/kg, within 1 hr after dosing on day 5", "result": "−29", "unit": "mmHg"}]}, {"smiles": "CN1[C@@H]2C[C@@H](OC(=O)[C@H](CO)c3ccccc3)C[C@H]1[C@@H]1O[C@@H]12", "note": "[scopolamine, Scopolamine HBr, reference compound]", "values": [{"measurement": "number of trials completed", "setting": "[3]; all scopolamine treated groups", "result": "significantly reduced"}, {"measurement": "percentage of correct choices vs Vehicle/Vehicle", "setting": "[3]; scopolamine HBr 0.1 mg/kg s.c.", "result": "significantly impaired percentage of correct choices"}]}, {"smiles": "C[C@H](N)Cc1ccccc1", "note": "[d-amphetamine]", "values": [{"measurement": "change in body weight from pre-dose", "setting": "[4]; 10 days", "result": "significantly smaller change in body weight"}, {"measurement": "pre-pulse inhibition", "setting": "[4]; dosing day ten", "result": "Neither d-amphetamine nor SKF-102698 was significantly different"}, {"measurement": "locomotor activity vs vehicle", "setting": "[4]; dosing day ten, nepicastat 5, 15, 50, SKF-102698 50 mg/kg bid, clonidine 20 μg/kg, d-amphetamine 2 mg/kg bid", "result": "significantly higher locomotor activity"}, {"measurement": "body core temperature", "setting": "[4]; dosing days one, five, ten", "result": "significantly increasing body core temperature on day one"}]}]}
